Assay results as given in publication PMC6566875, “Synthesis and characterisation of a new benzamide-containing nitrobenzoxadiazole as a GSTP1-1 inhibitor endowed with high stability to metabolic hydrolysis” (Journal of Enzyme Inhibition and Medicinal Chemistry, 2019).
Read-outs that look alike come from different tables or passages of the source.

Experiments:
TRAF2-GSTP1-1 complex = biological target: T1, TRAF2-GSTP1-1 complex (Homo sapiens, UniProt P09211); assay: ELISA for TRAF2-GSTP1-1 protein-protein interaction; type: binding; details: 20 µM compound, pH 7.0
T1 construct: made in house; host or cells: E. coli Top 10 (GSTP1-1); E. coli BL21 (DE3) (TRAF2)
T1 sequence (P09211 2-210 limits assumed, one chain of several): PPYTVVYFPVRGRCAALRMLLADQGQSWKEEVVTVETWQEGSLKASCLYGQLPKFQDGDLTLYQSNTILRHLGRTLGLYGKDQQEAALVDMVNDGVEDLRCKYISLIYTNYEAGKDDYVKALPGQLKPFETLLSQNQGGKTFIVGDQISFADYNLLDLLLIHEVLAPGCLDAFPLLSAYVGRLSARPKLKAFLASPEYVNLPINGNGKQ
Description: The formation of the TRAF2-GSTP1-1 complex was studied as previously described. Briefly, 200 µL of His-tagged TRAF2 C-terminal domain (0.005 µM in 20 mM Tris–HCl, pH 7.6, containing 150 mM NaCl and 10% glycerol) were added to each well of a 96-well His-Sorb plate (Qiagen, Hilden, Germany) and incubated overnight, at 4 °C, on a rocking platform. Afterwards, wells were washed with PBS and incubated for 30 min with GSTP1-1 (concentration range from 0.1 to 2 µM) in 10 mM potassium phosphate buffer, pH 7.0, containing 0.1 mM EDTA. Incubation with GSTP1-1 was also performed in the presence of 1 (20 µM), 3 (20 µM) or 4 (20 µM), both in the absence and presence of GSH (1 mM). At the end of incubation, the wells were washed with PBS and then filled with 200 µL of a mouse anti-GSTP1-1 antibody (Cell Signalling, Beverly, MA, USA; 1:1000 in TBS containing 0.1% Tween and 5% non-fat dry milk) for 2 h at room temperature. Subsequently, wells were washed with PBS and incubated with an antimouse IgG antibody (Cell Signalling; 1:1000 in TBS containing 0.1% Tween and 5% non-fat dry milk) for 45 min at room temperature. The immunocomplexes were detected by the addiction of 200 µL/well of the 1-Step-Turbo TMB substrate solution (Pierce, Rockford, IL, USA). The reaction was stopped after 10 min by the addition of 50 µL of 2M H2SO4, and the absorbance was measured at 450 nm. Data were analysed by fitting to Equation (1) where ν is the percentage of the saturated binding sites of TRAF2; [P]t and [L]t are the total concentrations of monomeric GSTP1-1 and TRAF2, respectively.

human GSTP1-1 [1] = biological target: T2, human GSTP1-1 (Homo sapiens, UniProt P09211); assay: GSTP1-1 catalytic activity inhibition (CDNB-GSH conjugation, spectrophotometric); type: biochemical; details: detergent-free buffer
T2 construct: made in house; host or cells: E. coli Top 10
T2 sequence (P09211 2-210 limits assumed): as the sequence (P09211 2-210 limits assumed, one chain of several) above
Description: The enzymatic activity of GSTP1-1 (20 nM subunits) was spectrophotometrically assayed at 340 nm (ε = 9,600 M^−1 cm^−1) and at 25 °C, by measuring the rate of 1-cloro-2,4-dinitrobenzene (CDNB) conjugation with GSH as a function of time[20]. The assay mixture contained 1 mM GSH and 1 mM CDNB in 1 mL of buffer B (0.1 M potassium phosphate buffer, pH 6.5 containing 0.1 mM EDTA).

human GSTP1-1 [2] = biological target: T2, human GSTP1-1; details: 1 mM GSH, 1 mM CDNB, pH 6.5, 25 °C; read-out: GSTP1-1 inhibition assay IC50; cited from earlier work

Structure (SMILES)	Effect on TRAF2-GSTP1-1 complex formation (TRAF2-GSTP1-1 complex; presence of GSH (1 mM))	Maximal inhibition of GSTP1-1 conjugation activity (human GSTP1-1 [1]; 0.01-20 µM compound)	IC50 (human GSTP1-1 [2])	IC50 (human GSTP1-1 [1]; 1 mM GSH, 1 mM CDNB, pH 6.5, 25 °C)	Ki (human GSTP1-1 [1]; 1 mM GSH, 1 mM CDNB, pH 6.5, 25 °C, read-out: Ki app (GSTP1-1 enzyme activity))	Extent of inhibition of GSTP1-1 enzyme activity (human GSTP1-1 [1]; 0.01-20 µM compound)	Effect on TRAF2-GSTP1-1 complex formation (TRAF2-GSTP1-1 complex; absence of GSH)
O=[N+]([O-])c1ccc(SCCCCCCO)c2nonc12 [Compound 1, 6-((7-nitrobenzo[c][1,2,5]oxadiazol-4-yl)thio)hexan-1-ol, reference compound]	overlaps those obtained with 3 and 4						
O=C(OCCCCCCSc1ccc([N+](=O)[O-])c2nonc12)c1ccccc1 [Compound 3, 6-((7-nitrobenzo[c][1,2,5]oxadiazol-4-yl)thio)hexyl benzoate, reference compound]		no more than 50%	600 ± 300 nM				
O=C(NCCCCCCSc1ccc([N+](=O)[O-])c2nonc12)c1ccccc1 [Compound 4, N-(6-((7-nitrobenzo[c][1,2,5]oxadiazol-4-yl)thio)hexyl)benzamide]	inhibited TRAF2-GST-P1-1 complex formation			700 ± 100 nM	700 ± 100 nM	completely inhibited	inhibited TRAF2-GST-P1-1 complex formation
